In assay [1] the test system is FXN mRNA in FRDA lymphoblasts. Particulars: FRDA cells in culture; ref Herman et al., 2006; cited from earlier work.
The subject of the next assay is HDAC. Particulars: read-out: IC50 as HDAC inhibitor; ref Herman et al., 2006; cited from earlier work.
The test system of assay [2] is FXN mRNA in FRDA lymphoblasts. The experiment in a line: FXN mRNA by qRT-PCR in FRDA lymphoblast cell line. The format is cell-based, human. (Real-time PCR tracks product formation cycle by cycle.)
Another assay concerns Sirt2. Particulars: read-out: IC50 Sirt2; reported; ref Napper et al., 2005; cited from earlier work.
Assay [3] concerns FXN mRNA in patient fibroblasts. The experiment in a line: FXN mRNA in FRDA patient fibroblasts. Particulars: concentrations up to 10 μM, not shown. Type of assay: cell-based, human.
The next assay relates to Sirt1. Particulars: read-out: IC50 Sirt1; reported; ref Napper et al., 2005; cited from earlier work.
The test system of assay [4] is FXN mRNA in primary lymphocytes from FRDA patients. The experiment in a line: FXN mRNA by qRT-PCR in primary FRDA patient lymphocytes. Type of assay: cell-based, human. Particulars: for up-regulation of FXN mRNA: normalized to GAPDH mRNA, relative to DMSO.
The subject of assay [5] is frataxin protein in FRDA lymphoblasts. The experiment in a line: Frataxin protein by western blot in FRDA lymphoblasts. Particulars: 106 or 3 at 10 μM, SAHA at 2 μM, 48 h, normalized to GAPDH. Type of assay: cell-based, human. (In general: In western blotting, separated proteins are transferred to a membrane and probed.)
For assay [6], the system named is p21^WAF1 mRNA in HEK293 cells. In words: p21WAF1 mRNA levels in HEK293 cells. Type of assay: cell-based. Particulars: data not shown.
The next assay concerns class I HDACs. Particulars: ref Chou et al., 2008; cited from earlier work.
Assay [7] addresses T1, HDAC1 (Homo sapiens, UniProt Q13547). In words: IC50 with recombinant HDAC1. The format is biochemical.
For assay [8], the target named is T1, HDAC1. The experiment in a line: Ki and kinetics from enzyme progression curves, HDAC1. Type of assay: biochemical.
A further assay addresses HDAC3/NcoR2 (Homo sapiens, UniProt O15379). In words: Ki and kinetics from enzyme progression curves, HDAC3. Type of assay: biochemical. Particulars: fit of Kobs versus inhibitor concentration.
The next assay concerns the target recombinant HDAC2 (Homo sapiens, UniProt Q92769). In words: Inhibition of recombinant HDAC2. The format is biochemical. Particulars: data not shown.
The subject of assay [9] is acetylated histone H3 in FRDA lymphoblast cell line. In words: Histone H3 acetylation by western blot in FRDA lymphoblasts. The format is cell-based, human. Particulars: for hyperacetylation of histone H3 after inhibitor removal: 3 or 106 at 10 μM, SAHA at 2 μM, 24 h, then washed, 0 to 7 h.
For assay [10], the system named is tubulin acetylation (class II HDAC6) in FRDA lymphoblasts. The experiment in a line: Tubulin acetylation by western blot in FRDA lymphoblasts. Type of assay: cell-based, human.
The target in another assay is T2, HDAC7 (Homo sapiens, UniProt Q8WUI4).
T2 sequence (Q8WUI4 1-952): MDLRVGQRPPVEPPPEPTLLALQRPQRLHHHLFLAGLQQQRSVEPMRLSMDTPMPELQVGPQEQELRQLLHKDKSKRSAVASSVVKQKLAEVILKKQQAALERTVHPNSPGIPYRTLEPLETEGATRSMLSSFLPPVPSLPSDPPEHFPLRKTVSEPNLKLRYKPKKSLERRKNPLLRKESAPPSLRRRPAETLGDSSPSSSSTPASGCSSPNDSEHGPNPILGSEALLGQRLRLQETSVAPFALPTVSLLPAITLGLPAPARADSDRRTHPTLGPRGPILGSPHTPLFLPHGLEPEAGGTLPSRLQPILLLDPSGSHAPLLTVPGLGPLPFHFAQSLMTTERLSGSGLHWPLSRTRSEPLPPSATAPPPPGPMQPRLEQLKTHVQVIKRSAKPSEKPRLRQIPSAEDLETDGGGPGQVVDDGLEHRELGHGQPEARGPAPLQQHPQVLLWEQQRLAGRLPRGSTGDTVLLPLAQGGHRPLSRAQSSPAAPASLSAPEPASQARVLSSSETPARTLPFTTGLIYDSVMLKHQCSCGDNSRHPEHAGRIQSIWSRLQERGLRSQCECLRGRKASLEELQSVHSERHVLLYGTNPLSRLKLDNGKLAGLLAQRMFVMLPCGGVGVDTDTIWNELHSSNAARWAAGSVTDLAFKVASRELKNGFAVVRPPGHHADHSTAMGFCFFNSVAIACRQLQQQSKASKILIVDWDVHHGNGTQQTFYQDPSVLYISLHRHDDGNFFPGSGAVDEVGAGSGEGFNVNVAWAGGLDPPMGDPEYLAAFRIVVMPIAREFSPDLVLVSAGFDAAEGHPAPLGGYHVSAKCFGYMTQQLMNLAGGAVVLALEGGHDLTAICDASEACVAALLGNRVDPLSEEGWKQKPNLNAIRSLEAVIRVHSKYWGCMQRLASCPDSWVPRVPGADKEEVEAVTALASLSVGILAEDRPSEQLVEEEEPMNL
In words: IC50 with recombinant HDAC7. The format is biochemical.

The test system of a further assay is recombinant HDAC8. Particulars: ref Chou et al., 2008; cited from earlier work.
A further assay concerns class II HDACs. Particulars: read-out: IC50s for class II enzymes; ref Chou et al., 2008; cited from earlier work.
Setting [11] is: recombinant HDAC1 vs HDAC3/NcoR2.

Entries after “also recorded” stand apart in the source; their conditions may differ.

The values that follow come from article PMC2909763 (Chemistry & biology, 2009).

T1 sequence (Q13547 whole entry): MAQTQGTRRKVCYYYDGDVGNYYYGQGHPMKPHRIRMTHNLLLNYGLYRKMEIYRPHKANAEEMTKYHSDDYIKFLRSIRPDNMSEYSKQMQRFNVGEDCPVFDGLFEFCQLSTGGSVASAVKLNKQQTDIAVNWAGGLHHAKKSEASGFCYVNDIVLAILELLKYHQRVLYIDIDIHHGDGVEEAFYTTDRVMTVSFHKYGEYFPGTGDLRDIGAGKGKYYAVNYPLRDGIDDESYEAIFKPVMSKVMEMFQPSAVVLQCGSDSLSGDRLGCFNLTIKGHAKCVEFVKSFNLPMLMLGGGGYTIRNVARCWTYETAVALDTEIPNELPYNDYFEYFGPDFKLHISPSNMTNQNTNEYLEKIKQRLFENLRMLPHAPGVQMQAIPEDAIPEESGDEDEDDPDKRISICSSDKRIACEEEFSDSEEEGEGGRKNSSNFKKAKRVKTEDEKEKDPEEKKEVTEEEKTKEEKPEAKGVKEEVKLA
HDAC3/NcoR2, sequence (O15379 whole entry): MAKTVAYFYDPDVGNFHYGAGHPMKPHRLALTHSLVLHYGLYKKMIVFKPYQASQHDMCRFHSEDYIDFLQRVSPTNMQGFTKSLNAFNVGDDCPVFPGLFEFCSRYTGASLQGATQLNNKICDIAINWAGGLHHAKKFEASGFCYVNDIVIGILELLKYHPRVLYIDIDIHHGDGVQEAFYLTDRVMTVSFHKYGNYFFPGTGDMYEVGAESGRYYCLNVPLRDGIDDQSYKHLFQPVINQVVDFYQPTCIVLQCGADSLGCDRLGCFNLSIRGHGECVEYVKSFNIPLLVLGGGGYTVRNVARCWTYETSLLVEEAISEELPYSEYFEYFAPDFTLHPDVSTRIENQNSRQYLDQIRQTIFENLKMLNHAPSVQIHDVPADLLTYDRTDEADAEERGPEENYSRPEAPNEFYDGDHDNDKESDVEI
HDAC3/NcoR2, sequence (Q9Y618 395-489 partner limits assumed): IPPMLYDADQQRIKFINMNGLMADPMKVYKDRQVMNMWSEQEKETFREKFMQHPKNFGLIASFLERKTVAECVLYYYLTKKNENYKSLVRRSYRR
recombinant HDAC2, sequence (Q92769 whole entry): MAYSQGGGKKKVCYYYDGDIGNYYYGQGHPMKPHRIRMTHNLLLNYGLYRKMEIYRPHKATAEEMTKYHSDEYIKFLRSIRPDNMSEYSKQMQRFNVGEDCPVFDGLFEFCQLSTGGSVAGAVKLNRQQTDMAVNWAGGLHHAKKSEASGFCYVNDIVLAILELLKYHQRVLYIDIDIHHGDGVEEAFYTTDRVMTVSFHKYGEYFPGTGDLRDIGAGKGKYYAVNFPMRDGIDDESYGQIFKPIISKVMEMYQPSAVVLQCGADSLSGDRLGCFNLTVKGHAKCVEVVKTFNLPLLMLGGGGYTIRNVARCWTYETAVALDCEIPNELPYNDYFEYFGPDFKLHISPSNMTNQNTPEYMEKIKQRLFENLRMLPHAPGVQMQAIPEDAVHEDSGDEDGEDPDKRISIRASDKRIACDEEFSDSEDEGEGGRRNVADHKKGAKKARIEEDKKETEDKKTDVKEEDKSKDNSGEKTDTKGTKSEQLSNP

Consider `O=C(CCCCCC(=O)Nc1ccccc1)Nc1ccccc1` [5b, N^1-phenyl-N^7-phenylheptanediamide], for which the “activation of FXN gene expression” value in assay [1] is recorded as “fails to activate”. Moreover, the IC50 in the assay with HDAC was roughly 200 µM.

In the case of `NC(=O)C1CCCc2c1[nH]c1ccc(Cl)cc21` (stereo not shown) [6-chloro-2,3,4,9-tetrahydro-1H-carbazole-1-carboxamide], the “effect on FXN mRNA levels” value is “no effect” in assay [2] (concentrations up to 10 μM, not shown); “no effect” in assay [3]; “no effect” in [4] (concentrations up to 10 μM, 48 h). Also, the IC50 in the assay on Sirt2 is […]; with Sirt1 it was […].

For the molecule `O=C(CCCCCCC(=O)Nc1ccccc1)NO` [SAHA, suberoylanilide hydroxamic acid, reference compound], the “activation of FXN gene expression” value in assay [1] was “neither TSA nor SAHA is an activator”. The “effect on frataxin protein levels” value in [5] is “decreased”. The “p21^WAF1 mRNA levels” value in [6] is given as “increased”.

For `CC(/C=C/C(=O)NO)=C\[C@@H](C)C(=O)c1ccc(N(C)C)cc1` [TSA, trichostatin A, reference compound], the “activation of FXN gene expression” value in assay [1] is on record as “neither TSA nor SAHA is an activator”. The “inhibition kinetics with class I HDACs” value with class I HDACs is given as “fast-on/fast-off”.

In the case of `Nc1ccc(-c2ccccc2)cc1NC(=O)CCCCCC(=O)Nc1ccccc1` [compound 3, N^1-(4-aminobiphenyl-3-yl)-N^7-phenylheptanediamide], the “preference for HDAC1 over HDAC3 comparing IC50 values” at HDAC1 [7] (setting [11]) is recorded as ~ 75 fold. Also, the “inhibition mechanism, HDAC1” value against HDAC1 [8] (fit of Kobs versus inhibitor concentration) is on record as “slow-on/slow-off”. Besides, the “preference for HDAC1 over HDAC3 from Ki measurements” value on HDAC1 [8] (setting [11]) was ~ 350 fold. The “effect on frataxin protein levels” value in assay [5] is reported as “without significant effect”. Besides, the “p21^WAF1 mRNA levels” value in assay [6] is on record as “increased”. Besides, the “inhibition mechanism, HDAC3/NcoR2” value at HDAC3/NcoR2 is on record as “simple slow-on/slow-off mechanism”. Further, on recombinant HDAC2, the “activity against recombinant HDAC2” value is recorded as “similarly active”. Also, in assay [4] (48 h), the “up-regulation of FXN mRNA levels” value is on record as “fails to reproducibly up-regulate” and the “up-regulation of FXN mRNA” value is reported as no more than 1.7 fold. The “hyperacetylation of histone H3 after inhibitor removal” value in assay [9] is recorded as “decreased only slightly”. In addition, the “HDAC inhibition in FRDA cells (histone acetylation titration)” value in assay [9] (increasing concentrations, western blotting) was “comparably active”. The tubulin acetylation entry in assay [10] (FRDA lymphoblasts) was “Neither 106 nor 3 caused tubulin acetylation”.

Consider `CC(C)(C)OC(=O)Nc1ccc(NC(=O)CCCC(=O)C(F)(F)F)cc1` [compound 4, tert-butyl 4-(6,6,6-trifluoro-5-oxohexanamido)phenylcarbamate], for which the “effect on levels of FXN mRNA” value in assay [2] (concentrations up to 10 μM for 24 h) was “no positive effect”. Besides, the figures for the IC50 at HDAC1 [7] and at HDAC7 were 30 µM and 4 µM, respectively. At HDAC7 (from IC50 values), the “preference for a class II HDAC (HDAC7) over a class I HDAC (HDAC1)” value is listed as 7.5 fold. The “up-regulation of FXN transcription” value in [4] (concentrations up to 40 μM) is given as “failed to show up-regulation”. Moreover, the tubulin acetylation result in assay [10] (1 μM in culture medium for 24 h) is listed as “potent inducer”; in assay [10] (FRDA lymphoblasts) it was “highly active”.

For `Cc1ccc(NC(=O)CCCCCC(=O)Nc2ccccc2N)cc1` [compound 106], the “effect on frataxin protein levels” value in [5] is reported as “positive effect”. Also, the “activity against HDAC8” value in the assay with recombinant HDAC8 is “only weak inhibitory activity; also recorded: only weakly active”. In the assay with class II HDACs, the IC50 was greater than 180 µM. For the same molecule, in assay [4] (48 h), the “up-regulation of FXN mRNA levels” value is listed as “highly active” and the “up-regulation of FXN mRNA” value is listed as 3 – 4 fold. For the same molecule, the “hyperacetylation of histone H3 after inhibitor removal” value in assay [9] is reported as “decreased only slightly”. Further, the tubulin acetylation entry in [10] (FRDA lymphoblasts) is “Neither 106 nor 3 caused tubulin acetylation”. Further, in the assay with class I HDACs, the “inhibition kinetics with class I HDACs” value is reported as “slow-on/slow-off”.

Regarding `CCCC(CCC)C(=O)O` [valproic acid], in assay [1], the “activation of FXN gene expression” value is on record as “none”.
